Where two headings read alike, the source gives them in different places. Non-standard residues stand in square brackets, D forms with d. Residues, ends and D or L forms follow the SMILES beside them. *: point of attachment. X2 = O=C(CCCCCCCC(=O)*)N1CCN(c2ncnc3[nH]ccc23)CC1

We go through seven molecules from PMC9573699, “Deactivatable Bisubstrate Inhibitors of Protein Kinases” (Molecules, 2022).

Data set [1] can be described thus: HPLC-MS analysis of the fragmentation of ARC-2121 and ARC-2194. The format is physicochemical. As to conditions: TCEP 1 mM, pH 7.5, 30 °C. As to the method:
At fixed time points (1, 10, 30, 60, and 120 min), 10 µL of the solution (corresponding to 1 nmol of the substrate) was injected into the RP-HPLC column.
ARC-2121 (200 µM) was dissolved in H2O:MeCN (10:1). ARC-2121 (200 µM, 20 µL) was irradiated for a fixed time (15, 30, 60, 90, and 120 s) inside a microtiter plate at room temperature (rt) using the custom-made 365 nm LED array (Figure S2). Then, 9 µL (1.7 nmol) of the solution was injected into the RP-HPLC column.

Data set [2] concerns the target PKAcα. As to conditions: cited from earlier work.
In data set [3] the target is T1, PKAcα (Homo sapiens, UniProt P17612).
Text: (§1) In the present work, photoluminescence-based competitive equilibrium binding assay was used to establish the KD and KD^app values of the novel compounds as determined before and after fragmentation, respectively. […] Two assay formats were used, which were designed for the determination of KD values of high-affinity bivalent inhibitors and the mixtures of their low-affinity fragments, respectively.
The first assay was based on the measurement of the time-gated photoluminescence signal intensity (TGLI) and it utilized ARC-Lum(Fluo) probes ARC-1063 or ARC-1182, which both emit long life-time photoluminescence signal when associated with a target PK [38]. ARC-1063 and ARC-1182 differ by the fluorescent label (Figure S7) and the choice between these probes was only based on the availability of the particular probe. […]
The displacement data were fitted to the previously described [40, 42] exact model of competitive binding (further explained in Appendix A) to determine KD and KD^app values, which were used as concentration- and probe-independent quantities to evaluate the deactivation efficiencies of the novel compounds.
The fluorescence intensity (FI), fluorescence anisotropy (FA), and time gated photoluminescence intensity (TGLI) measurements were performed with a PHERAstar (BMG Labtech) microplate reader. […] The TGLI was recorded for 200 µs after 60 µs delay from the flash-excitation. […]
Data set [4] has as its target T1, PKAcα. In words: FA-based competitive binding/displacement assay (probe ARC-583). As to conditions: for influence of TCEP on the displacement curve: FA assay, TCEP 1 mM.
Text: as §1
A typical assay setup based on the measurement of FA utilizes concentrations of the fluorescence probes slightly below the concentration of the target protein but higher than the KD^* to achieve maximal Δr. The assay in the present work was conducted at 2 nM ARC-583 and 3 nM PKAcα. […] Thus, the KD values for low-affinity compounds can be reliably established with this FA-based assay format.
The fluorescence intensity (FI), fluorescence anisotropy (FA), and time gated photoluminescence intensity (TGLI) measurements were performed with a PHERAstar (BMG Labtech) microplate reader. The FI and FA measurements of the photoluminescent probe ARC-583 were performed with FP optical module [EX 540(50) nm, EM 590(50) nm]. The detector was adjusted with solution of the free probe ARC-583 (in the absence of PKAcα). […] The TGLI measurements of photoluminescent probes ARC-1182 and ARC-1063 were performed with HTRF optical module (EX 330(50) nm, EM 675(50) nm). The TGLI was recorded for 200 µs after 60 µs delay from the flash-excitation.
Upon arrival, the stock solution of PKAcα was divided into batches and stored at −80 °C. After removal from a freezer at −80 °C, the batches of PKAcα were stored at 0 °C in an ice box until consumed, to avoid repetitive freeze-thaw cycles.
The microplates were incubated for 30 min at 30 °C before measurements. The measurements were repeated after 60 min to verify that the reactions had reached the equilibrium. […] Formation of the complex was observed by the change of FA and the concentration of PKAcα was calculated as previously described [40, 42]. […] First, the solutions were incubated for 30 min at 30 °C, thereafter the FA or TGLI signals were measured. Then, the stock solution of TCEP (1 µL) was added to all wells to the final concentration of 1 mM. The microplates were then incubated for an additional 30 min at 30 °C and the FA or TGLI signals were measured in the presence of TCEP. All experiments were carried out in at least two replicates (n ≥ 2) and the reported errors are the standard errors of the mean.
The anisotropy change (Δr) with respect to the anisotropy of free photoluminescent probe ARC-583 and the TGLI of the photoluminescent probes ARC-1182 and ARC-1063 were plotted as functions of log[I]T, where [I]T corresponds to the total concentration of the ‘dark’ ligand/inhibitor that competes with the probe for the binding to the catalytic subunit of PK ([I]T = [I] + [PK:I], where [I] and [PK:I] correspond to the equilibrium concentrations of unbound I and PK:I complex, respectively).
Data set [5] relates to PKAcα. Kind of data set: Estimated dynamic range of enzyme activity change upon deactivation (Equations 2, 3). The note with it: estimated from change of KD app / IC50 upon deactivation. From the text:
In general, deactivation of an inhibitor can be observed by a shift of a dose-response curve in a biochemical assay, which is caused by the increase of IC50 value from IC50^ON (the IC50 of the active inhibitor) to IC50^OFF (the IC50 of the deactivated inhibitor). The fraction of the active enzyme before and after applying the trigger depends on the initial concentration of the deactivatable inhibitor. If the sigmoidal dose–response model describes the concentration dependencies of the inhibition before and after applying the stimulus, the biggest change of the fraction of the active enzyme in the solution is observed at the concentration of the inhibitor Iopt whose logarithm is the average of the corresponding logIC50 values (Equation (2)):(2) logIopt=1/2logIC50ON+logIC50OFF
The ratio of fractions of active enzyme after (a^maxopt) and before (a^minopt) deactivation of the inhibitor (i.e., the on/off ratio of the activity of the enzyme) is determined by the square root of the ratio of the corresponding IC50 values (Equation (3)):(3) aoptmax/aoptmin=IC50OFF/IC50ON^1/2
Thus, the larger the difference between IC50^ON and IC50^OFF values is (ΔIC50), the higher the dynamic range of activity change (Δaopt = a^maxopt − a^minopt) of the enzyme is. […]

Data set [6] relates to PKAcα. Also on record: method as in PMID 17125267. As to conditions: cited from earlier work.

As for `O=C(OCCS)N1CCN(c2ncnc3[nH]ccc23)CC1` [Compound 1a], the “fraction converted to 2a” value in data set [1] (after 2 h) is reported as “more than 50%”.
The Kd is a measure of binding affinity in units of concentration. For `N=C(N)NCCC[C@@H](NC(=O)CCCCCCCC(=O)N1CCN(c2ncnc3[nH]ccc23)CC1)C(=O)N[C@H](CCCNC(=N)N)C(=O)N[C@H](CCCNC(=N)N)C(=O)N[C@H](CCCNC(=N)N)C(=O)N[C@H](CCCNC(=N)N)C(=O)N[C@H](CCCNC(=N)N)C(=O)N[C@H](CCCCN)C(N)=O` [ARC-1411] (X2-[dR][dR][dR][dR][dR][dR][dK]-NH2), the results for the Kd at PKAcα [2] (previously measured affinity) and at PKAcα [3] were 0.003 nM and 3 ± 1 pM, respectively. Also, the “influence of TCEP on the displacement curve” value (from here on “influence of TCEP”) at PKAcα [4] was “not influenced”.
Turning to `NC(=O)CCCCCCCC(=O)N1CCN(c2ncnc3[nH]ccc23)CC1` [Compound 11a, 7DP-Pip-Nda-amide], at PKAcα [4], the Kd amounted to 460 ± 210 nM.
For `N=C(N)NCCC[C@@H](NC(=O)[C@@H](CCCNC(=N)N)NC(=O)[C@@H](CCCNC(=N)N)NC(=O)[C@@H](CCCNC(=N)N)NC(=O)[C@@H](CCCNC(=N)N)NC(=O)[C@@H](CCCNC(=N)N)NC(=O)OCCSSCCOC(=O)N1CCN(c2ncnc3[nH]ccc23)CC1)C(N)=O` [ARC-2194], in the data set with PKAcα [5], the “Δaopt (dynamic range of activity change of the enzyme)” value is 98%. Moreover, the “time to quantitative conversion of parent compound to 1a” value in data set [1] (100 µM) is on record as “less than 1 min”.
For `O=S(=O)(NCCNC/C=C/c1ccc(Br)cc1)c1cccc2cnccc12` [Compound H-89], on PKAcα [2] (H-89:PKAcα complex), the Kd was 9 nM. The “influence of TCEP” value on PKAcα [4] is listed as “not influenced”.
On to `c1nc(N2CCNCC2)c2cc[nH]c2n1` [Compound 2a, 4-(piperazin-1-yl)-7H-pyrrolo [2,3-d]pyrimidine], for which, at PKAcα [4], the Kd was determined as 550 ± 150 nM and the “influence of TCEP” value is listed as “not influenced”.
On to hexa-D-arginine, for which the inhibitory potency result in the data set on PKAcα [6] is recorded as “millimolar”.
